Assay results as given in patent US20050009840A1 (SUGEN, INC., priority 2003, published 2005).

The molecules below were run against T1, Met kinase domain (GST fusion protein) (Homo sapiens, UniProt P08581) (assay: Met transphosphorylation assay (ELISA, poly(glu-tyr) substrate)). Conditions: read-out: Met IC50.
T1 construct: Purified GST fusion protein containing the Met kinase domain
Format: biochemical
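Note: Cell-free ELISA with plate-bound poly(Glu:Tyr 4:1) phosphorylated by GST-fused Met kinase domain plus ATP and Mn2+, phosphotyrosine detected by anti-phosphotyrosine antibody with HRP and ABTS read-out.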

T1 sequence (P08581 1078-1345 limits assumed): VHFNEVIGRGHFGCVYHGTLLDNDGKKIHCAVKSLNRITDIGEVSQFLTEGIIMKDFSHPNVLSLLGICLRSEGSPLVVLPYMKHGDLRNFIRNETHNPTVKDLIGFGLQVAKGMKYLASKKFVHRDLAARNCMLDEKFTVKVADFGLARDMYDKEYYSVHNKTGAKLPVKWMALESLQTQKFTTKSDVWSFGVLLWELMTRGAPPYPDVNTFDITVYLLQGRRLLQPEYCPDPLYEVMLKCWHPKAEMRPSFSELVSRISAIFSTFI

| IC50 | Compound |
| --- | --- |
| 69 nM | CC(Oc1nc(-c2cccc(C(=O)N3CC[C@H](N)C3)c2)cnc1N)c1c(Cl)ccc(F)c1Cl (stereo partly drawn) [II-84, (3-{5-Amino-6-[1-(2,6-dichloro-3-fluoro-phenyl)-ethoxy]-pyrazin-2-yl}-phenyl)-[(3S)-3-amino-pyrrolidin-1-yl)-m-ethanone] |
| 110 nM | CC(Oc1nc(-c2cccc(C(=O)N3CC[C@@H](N)C3)c2)cnc1N)c1c(Cl)ccc(F)c1Cl (stereo partly drawn) [II-85, (3-{5-Amino-6-[1-(2,6-dichloro-3-fluoro-phenyl)-ethoxy]-pyrazin-2-yl}-phenyl)-[(3R)-3-amino-pyrrolidin-1-yl)-m-ethanone] |
| 150 nM | CC(Oc1nc(-c2cccc(C(=O)NCCCN3CCCC3)c2)cnc1N)c1c(Cl)ccc(F)c1Cl (stereo not shown) [II-91, 3-{5-Amino-6-[1-(2,6-dichloro-3-fluoro-phenyl)-ethoxy]-pyrazin-2-yl}-N-(3-pyrrolidin-1-yl-propyl)-benzamide] |
| 150 nM | CC(Oc1nc(-c2cccc(C(=O)N3CCC(N4CCCC4)CC3)c2)cnc1N)c1c(Cl)ccc(F)c1Cl (stereo not shown) [II-92, (3-{5-Amino-6-[1-(2,6-dichloro-3-fluoro-phenyl)-ethoxy]-pyrazin-2-yl}-phenyl)-(4-pyrrolidin-1-yl-piperidin-1-yl)-methanone] |
| 220 nM | Nc1ncc(-c2ccc(C(=O)NCCN3CCOCC3)cc2)nc1OCc1cccc(F)c1C(F)(F)F [II-94, 4-[5-Amino-6-(3-fluoro-2-trifluoromethyl-benzyloxy)-pyrazin-2-yl]-N-(2-morpholin-4-yl-ethyl)-benzamide] |
| 81 nM | CN1CCC(NC(=O)c2ccc(-c3cnc(N)c(OCc4cccc(F)c4C(F)(F)F)n3)cc2)CC1 [II-95, 4-[5-Amino-6-(3-fluoro-2-trifluoromethyl-benzyloxy)-pyrazin-2-yl]-N-(1-methyl-piperidin-4-yl)-benzamide] |
| 150 nM | CC(Oc1nc(-c2cccc(C(=O)NCCCN3CCCC3)c2)cnc1N)c1c(Cl)ccc(F)c1Cl (stereo not shown) [II-96, 3-{5-Amino-6-[1-(2,6-dichloro-3-fluoro-phenyl)-ethoxy]-pyrazin-2-yl}-N-(3-pyrrolidin-1-yl-propyl)-benzamide] |
| 350 nM | CC(Oc1nc(-c2cccc(C(=O)NCCCN3CCCC3)c2)cnc1N)c1c(F)ccc(F)c1Cl (stereo not shown) [II-97, 3-{5-Amino-6-[1-(2-chloro-3,6-difluoro-phenyl)-ethoxy]-pyrazin-2-yl}-N-(3-pyrrolidin-1-yl-propyl)-benzamide] |
| 210 nM | CC(Oc1nc(-c2cccc(C(=O)NC3CCN(C)CC3)c2)cnc1N)c1c(F)ccc(F)c1Cl (stereo not shown) [II-98, 3-{5-Amino-6-[1-(2-chloro-3,6-difluoro-phenyl)-ethoxy]-pyrazin-2-yl}-N-(1-methyl-piperidin-4-yl)-benzamide] |
| 180 nM | CC(Oc1nc(-c2cccc(C(=O)NCCN3CCCC3)c2)cnc1N)c1c(F)ccc(F)c1Cl (stereo not shown) [II-99, 3-{5-Amino-6-[1-(2-chloro-3,6-difluoro-phenyl)-ethoxy]-pyrazin-2-yl}-N-(2-pyrrolidin-1-yl-ethyl)-benzamide] |
| 310 nM | CC(Oc1nc(-c2cccc(C(=O)NCCN3CCOCC3)c2)cnc1N)c1c(F)ccc(F)c1Cl (stereo not shown) [II-100, 3-{5-Amino-6-[1-(2-chloro-3,6-difluoro-phenyl)-ethoxy]-pyrazin-2-yl}-N-(2-morpholin-4-yl-ethyl)-benzamide] |
| 640 nM | CC(=O)N1CCN(CCNC(=O)c2cccc(-c3cnc(N)c(OC(C)c4c(F)ccc(F)c4Cl)n3)c2)CC1 (stereo not shown) [II-101, N-[2-(4-Acetyl-piperazin-1-yl)ethyl]-3-{5-amino-6-[1-(2-chloro-3,6-difluoro-phenyl)-ethoxy]-pyrazin-2-yl}-benzamide] |
| 100 nM | CC(Oc1nc(-c2ccc(C(=O)NCCCN3CCCC3)cc2)cnc1N)c1c(F)ccc(F)c1Cl (stereo not shown) [II-109, 4-{5-Amino-6-[1-(2-chloro-3,6-difluoro-phenyl)-ethoxy]-pyrazin-2-yl}-N-(3-pyrrolidin-1-yl-propyl)-benzamide] |
| 160 nM | CC(Oc1nc(-c2ccc(C(=O)N3CCN(C)CC3)cc2)cnc1N)c1c(F)ccc(F)c1Cl (stereo not shown) [II-110, (4-{5-Amino-6-[1-(2-chloro-3,6-difluoro-phenyl)-ethoxy]-pyrazin-2-yl}-phenyl)-(4-methyl-piperazin-1-yl)-methanone] |
| 170 nM | CC(Oc1nc(-c2ccc(C(=O)N3CCC(N4CCCC4)CC3)cc2)cnc1N)c1c(F)ccc(F)c1Cl (stereo not shown) [II-111, (4-{5-Amino-6-[1-(2-chloro-3,6-difluoro-phenyl)-ethoxy]-pyrazin-2-yl}-phenyl)-(4-pyrrolidin-1-yl-piperidin-1-yl)-methanone] |
| 190 nM | CC(Oc1nc(-c2ccc(C(=O)N3C[C@@H](C)N[C@@H](C)C3)cc2)cnc1N)c1c(F)ccc(F)c1Cl (stereo partly shown) [II-112] |

| IC50 | Compound |
| --- | --- |
| 180 nM | CC(Oc1nc(-c2ccc(C(=O)N3CCC[C@H]3CN3CCCC3)cc2)cnc1N)c1c(F)ccc(F)c1Cl (stereo partly drawn) [II-113, (4-{5-Amino-6-[1-(2-chloro-3,6-difluoro-phenyl)-ethoxy]-pyrazin-2-yl}-phenyl)-((S)-2-pyrrolidin-1-ylmethyl-pyrrolidin-1-yl)-methanone] |
| 130 nM | CC(Oc1nc(-c2ccc(C(=O)N3CCC[C@@H]3CN3CCCC3)cc2)cnc1N)c1c(F)ccc(F)c1Cl (stereo partly drawn) [II-114, (4-{5-Amino-6-[1-(2-chloro-3,6-difluoro-phenyl)-ethoxy]-pyrazin-2-yl}-phenyl)-((R)-2-pyrrolidin-1-ylmethyl-pyrrolidin-1-yl)-methanone] |
| 78 nM | CC(Oc1nc(-c2ccc(C(=O)N3CC[C@@H](N)C3)cc2)cnc1N)c1c(F)ccc(F)c1Cl (stereo partly drawn) [II-115, (4-{5-Amino-6-[1-(2-chloro-3,6-difluoro-phenyl)-ethoxy]-pyrazin-2-yl}-phenyl)-((R)-3-amino-pyrrolidin-1-yl)-methanone] |
| 190 nM | CC(Oc1nc(-c2ccc(C(=O)NC3CCN(C)CC3)cc2)cnc1N)c1c(F)ccc(F)c1Cl (stereo not shown) [II-116, 4-{5-Amino-6-[1-(2-chloro-3,6-difluoro-phenyl)-ethoxy]-pyrazin-2-yl}-N-(1-methyl-piperidin-4-yl)-benzamide] |
| 110 nM | CC(Oc1nc(-c2ccc(C(=O)NCCN3CCCC3)cc2)cnc1N)c1c(F)ccc(F)c1Cl (stereo not shown) [II-117, 4-{5-Amino-6-[1-(2-chloro-3,6-difluoro-phenyl)-ethoxy]-pyrazin-2-yl}-N-(2-pyrrolidin-1-yl-ethyl)-benzamide] |
| 260 nM | CC(Oc1nc(-c2ccc(C(=O)NCCN3CCOCC3)cc2)cnc1N)c1c(F)ccc(F)c1Cl (stereo not shown) [II-118, 4-{5-Amino-6-[1-(2-chloro-3,6-difluoro-phenyl)-ethoxy]-pyrazin-2-yl}-N-(2-morpholin-4-yl-ethyl)-benzamide] |
| 480 nM | CC(=O)N1CCN(CCNC(=O)c2ccc(-c3cnc(N)c(OC(C)c4c(F)ccc(F)c4Cl)n3)cc2)CC1 (stereo not shown) [II-119, N-[2-(4-Acetyl-piperazin-1-yl)-ethyl]-4-{5-amino-6-[1-(2-chloro-3,6-difluoro-phenyl)-ethoxy]-pyrazin-2-yl}-benzamide] |
| 190 nM | CC(Oc1nc(-c2ccc(NS(=O)(=O)CCN3CCN(C(=O)CO)CC3)cc2)cnc1N)c1c(F)ccc(F)c1Cl (stereo not shown) [II-120, 2-[4-(2-Hydroxy-acetyl)-piperazin-1-yl]-ethanesulfonic acid (4-{5-amino-6-[1-(2-chloro-3,6-difluoro-phenyl)-ethoxy]-pyrazin-2-yl}-phenyl)-amide] |
| 190 nM | Nc1ncc(-c2cccc(C(=O)N3CCC(N4CCCC4)CC3)c2)nc1OCc1cccc(F)c1C(F)(F)F [II-122, {3-[5-Amino-6-(3-fluoro-2-trifluoromethyl-benzyloxy):pyrazin-2-yl]-phenyl)(4-pyrrolidin-1-yl-piperidin-1-yl)-methanone] |
| 230 nM | CN1CCN(C(=O)c2cccc(-c3cnc(N)c(OCc4cccc(F)c4C(F)(F)F)n3)c2)CC1 [II-124, {3-[5-Amino-6-(3-fluoro-2-trifluoromethyl-benzylloxy)-pyrazin-2-yl]-phenyl}-(4-methyl-piperazin-1-yl)-methanone] |
| 220 nM | Nc1ncc(-c2cccc(C(=O)NCCCN3CCCC3)c2)nc1OCc1cccc(F)c1C(F)(F)F [II-125, 3-[5-Amino-6-(3-fluoro-2-trifluoromethyl-benzyloxy)-pyrazin-2-yl]-N-(3-pyrrolidin-1-yl-propyl)-benzamide] |
| 650 nM | CC(=O)N1CCN(CCNC(=O)c2cccc(-c3cnc(N)c(OCc4cccc(F)c4C(F)(F)F)n3)c2)CC1 [II-126, N-[2-(4-Acetyl-piperazin-1-yl)-ethyl]-3-[5-amino-6-(3-fluoro-2-trifluoromethyl-benzyloxy)-pyrazin-2-yl]-benzamide] |
| 47 nM | Nc1ncc(-c2ccc(C(=O)N3CCC(N4CCCC4)CC3)cc2)nc1OCc1cccc(F)c1C(F)(F)F [II-127, {4-[5-Amino-6-(3-fluoro-2-trifluoromethyl-benzyloxy)-pyrazin-2-yl]-phenyl}-(4-pyrrolidin-1-yl-piperidin-1-yl)-methanone] |
| 150 nM | CN1CCN(C(=O)c2ccc(-c3cnc(N)c(OCc4cccc(F)c4C(F)(F)F)n3)cc2)CC1 [II-128, {4-[5-Amino-6-(3-fluoro-2-trifluoromethyl-benzyloxy)-pyrazin-2-yl]-phenyl}-(4-methyl-piperazin-1-yl)-methanone] |
| 52 nM | Nc1ncc(-c2ccc(C(=O)N3CCC[C@H]3CN3CCCC3)cc2)nc1OCc1cccc(F)c1C(F)(F)F [II-129, {4-[5-Amino-6-(3-fluoro-2-trifluoromethyl-benzyloxy)-pyrazin-2-yl]-phenyl}-((S)-2-pyrrolidin-1-ylmethyl-pyrrolidin-1-yl)-methanone] |
| 170 nM | CC(Oc1nc(-c2cccc(C(=O)N3CCN(C)CC3)c2)cnc1N)c1c(Cl)ccc(F)c1Cl (stereo not shown) [II-130, (3-{5-Amino-6-[1-(2,6-dichloro-3-fluoro-phenyl)-ethoxy]-pyrazin-2-yl}-phenyl)-(4-methyl-piperazin-1-yl)-methanone] |

| Compound | IC50 |
| --- | --- |
| CC(Oc1nc(-c2cccc(C(=O)O)c2)cnc1N)c1c(Cl)ccc(F)c1Cl (stereo not shown) [II-83, 3-{5-amino-6-[1-(2,6-dichloro-3-fluoro-phenyl)-ethoxy]-pyrazin-2-yl}benzoic acid] | 1360 nM |
| CC(=O)N1CCN(CCNC(=O)c2cccc(-c3cnc(N)c(OC(C)c4c(Cl)ccc(F)c4Cl)n3)c2)CC1 (stereo not shown) [II-87, N-[2-(4-Acetyl-piperazin-1-yl)-ethyl]-3-{5-amino-6-[1-(2,6-dichloro-3-fluoro-phenyl)-ethoxy]-pyrazin-2-yl}-benzamide] | 186 nM |
